According to ChEMBL document CHEMBL1687773 (Antimicrob Agents Chemother, 2010):
Calls of active or inactive are those of the source.

Tests used:
[1] = test system: Human immunodeficiency virus type 1 reverse transcriptase (Human immunodeficiency virus 1), Q72547 [K103N]; experiment: Inhibition of HIV1 histidine-tagged reverse transcriptase K103N mutant activity by primer extension assay
[2] = test system: Human immunodeficiency virus 1; type: functional, organism-based; conditions: NL4-3, HeLaP4
[3] = test system: Human immunodeficiency virus 1; type: functional, organism-based; conditions: NL4-3, HeLaP4; remark: listed apart in the source

Measured: inhibition

CCc1nn(CCO)c(CC)c1Oc1cc(C#N)cc(C#N)c1 [LERSIVIRINE]
active: all assays above
